Patent US20170151351A1, “Gd-ENCAPSULATED CARBON DOTS AND METHODS OF MAKING AND USING THEREOF” (University of Georgia Research Foundation, Inc., priority 2015, published 2017)

Key:
[1] = at 7T, literature comparison; cited from earlier work
[2] = tested on: U87MG (human glioma) cells; assay: MTT cytotoxicity assay; format: cell-based; conditions: in the presence of 2.5 mM Ca(II)
Protocol: The cytotoxicity of Gd@C-dots was evaluated with U87MG (human glioma) cells using 3-(4, 5-dimethylthiazolyl-2)-2,5-diphenyltetrazolium bromide (MTT) assays. 2.5 mM Ca(II) was added into the incubation medium; while posing no direct toxicities to cells, such a high concentration of calcium can cause transmetallation to Gd complexes, leading to liberation of free Gd (Corot, C., et al., J. Magn. Reson. Imaging 1998, 8:695). […] The low toxicity was again attributed to the great resistance of Gd@C-dots against biodegradation and transmetallation.
c(RGDyK) affords strong binding affinity toward integrin αvβ3, a cancer biomarker that is seen overexpressed on neoplastic blood vessels and in many types of cancer cells. So the resulting conjugates (hereafter designated as RGD-Gd@C-dots) and unmodified Gd@C-dots were incubated with U87MG cells and imaged under a fluorescence microscope (ex/em: 360/460 nm). Specifically, U87MG cells were cultured in DMEM supplemented with 2 mM L-glutamine, 1.5 g/L sodium bicarbonate, 0.1 mM nonessential amino acids, 1.0 mM sodium pyruvate, and 10% fetal bovine serum at 37° C. in a humidified atmosphere with 5% CO2. 10^5 U87MG cells were seeded in 96-well plates (1×10^4 cells per well) 24 h prior to the experiments. […] The slides were mounted and imaged under an Olympus X71 fluorescence microscope.

[3] = tested on: U87MG (human glioma) cells; conditions: no added Ca(II); cited from earlier work

For `O=C([O-])CN(CCN(CC(=O)[O-])CC(=O)O)CCN(CC(=O)[O-])CC(=O)O.[Gd+3]` [Gd-DTPA], the r1 relaxivity [1] is listed as 3.1 mM⁻¹ s⁻¹, the “IC50 (cytotoxicity)” value [2] is listed as 33.1 µg/mL and the “toxicity under normal cell culture conditions” value [3] is listed as “no toxicities”.
